Results from PMC9367663 (Journal of Enzyme Inhibition and Medicinal Chemistry, 2022).
“Also recorded” adds a separate entry of the source. Like-named read-outs stand apart in the source and are kept apart here.

How the values were obtained:
cathepsin L = cathepsin L (Homo sapiens, UniProt P07711); assay: biochemical; type: biochemical
SARS-CoV-2 PL^Pro = SARS-CoV-2 PL^Pro (Severe acute respiratory syndrome coronavirus 2, UniProt P0DTD1); assay: biochemical; type: biochemical
SARS-CoV-2 viral isolate = type: cell-based; conditions: 30 µM
[1] = UV–vis stability in biologically relevant media; type: physicochemical; conditions: 50 mM acetate buffer pH 5.5 (1% DMSO for a and 1a), 0 and 30 min
Description: The same buffers as for enzymatic assays were used for UV–vis stability testing (50 mM acetate buffer, pH = 5.5, and 50 mM HEPES buffer, pH = 7.4). Pyrithione a and zinc pyrithione 1a were dissolved in DMSO. Mixtures of a dissolved compound in DMSO (1%) and buffer (99%) were filtered through Minisart® Regenerated Cellulose Syringe Filter (25 mm, 0.2 µm). Ruthenium complex 2a was dissolved directly in buffers. After preparation, the spectra were immediately recorded on UV–vis spectrometer with an additional recording after 30 min.

[2] = 1H NMR stability in biologically relevant media; type: physicochemical; conditions: buffers in D2O (1% DMSO-d6 for a and 1a), t = 0 and 30 min
Description: Acetate and HEPES buffers were prepared in D2O. […] Such solutions were further filtered through Minisart® Regenerated Cellulose Syringe Filter (25 mm, 0.2 µm).

[3] = test system: human lung tissue (HLT) cells
in vitro = conditions: human
[4] = pH 5.5, read-out: IC50 cathepsin L
[5] = 100 µM ligand, averages of three measurements

Sequence of cathepsin L (P07711 114-333): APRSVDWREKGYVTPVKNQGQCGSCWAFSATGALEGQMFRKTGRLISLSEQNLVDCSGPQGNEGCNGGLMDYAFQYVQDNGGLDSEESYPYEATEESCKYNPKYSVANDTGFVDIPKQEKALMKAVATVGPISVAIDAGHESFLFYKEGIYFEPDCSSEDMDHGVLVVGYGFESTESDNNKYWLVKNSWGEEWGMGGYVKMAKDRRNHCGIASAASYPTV

Compound Zn-(4Me-pth) complex [1c] has an IC50 (cathepsin L; [4]) of 410 ± 80 nM and an IC50 (SARS-CoV-2 PL^Pro; pH 7.4, read-out: IC50 PL^Pro) of 540 ± 250 nM.

With `On1ccc2ccccc2c1=S` [f, N-hydroxyisoquinoline-1-thione] the “vi/v0 at 100 µM, Cathepsin L (relative reaction rate)” value (cathepsin L; [5]) was 0.65 and the “vi/v0 at 100 µM, PLPro (relative reaction rate)” value (SARS-CoV-2 PL^Pro; [5]) was 0.66.

For `Cc1cccc(=S)n1O` [e], the “vi/v0 at 100 µM, Cathepsin L (relative reaction rate)” value (cathepsin L; [5]) was 1.15 and the “vi/v0 at 100 µM, PLPro (relative reaction rate)” value (SARS-CoV-2 PL^Pro) was 0.82.

In the case of `Cc1cccn(O)c1=S` [b], the “vi/v0 at 100 µM, Cathepsin L (relative reaction rate)” value (cathepsin L; [5]) is reported as 1.05 and the “vi/v0 at 100 µM, PLPro (relative reaction rate)” value (SARS-CoV-2 PL^Pro) is reported as 0.50.

For `COc1cccn(O)c1=S` [h], the “vi/v0 at 100 µM, Cathepsin L (relative reaction rate)” value (cathepsin L; [5]) was 1.17 and the “vi/v0 at 100 µM, PLPro (relative reaction rate)” value (SARS-CoV-2 PL^Pro; [5]) was 0.60.

With `On1ccccc1=S` [a, 1-hydroxy-2(1H)-pyridinethione] the IC50 (cathepsin L) was > 500000 nM, the “vi/v0 at 100 µM, Cathepsin L (relative reaction rate)” value (cathepsin L) was 1.09 and the “inhibition of SARS-CoV-2 replication” value (SARS-CoV-2 viral isolate) was “no effect; also recorded: did not inhibit”. For the same compound, the “UV–vis stability in acetate buffer” value [1] was “remain stable”, the “1H NMR stability in acetate and HEPES buffers” value [2] was “no structural changes” and the cell survival [3] was 72.91%. The CC50 (in vitro) was > 100000 nM, the viability (in vitro) was 51.9 to 55.5% and the IC50 (SARS-CoV-2 PL^Pro) was > 500000 nM. The “vi/v0 at 100 µM, PLPro (relative reaction rate)” value (SARS-CoV-2 PL^Pro) was 0.88.

For `Cc1ccn(O)c(=S)c1` [c], the “vi/v0 at 100 µM, Cathepsin L (relative reaction rate)” value (cathepsin L; [5]) was 1.04 and the “vi/v0 at 100 µM, PLPro (relative reaction rate)” value (SARS-CoV-2 PL^Pro; [5]) was 0.60.

For `Cc1ccc(=S)n(O)c1` [d], the “vi/v0 at 100 µM, Cathepsin L (relative reaction rate)” value (cathepsin L; [5]) was 1.01 and the “vi/v0 at 100 µM, PLPro (relative reaction rate)” value (SARS-CoV-2 PL^Pro) was 0.77.

For Zn-(6Me-pth) complex [1e], the IC50 (cathepsin L; [4]) was 240 ± 50 nM and the IC50 (SARS-CoV-2 PL^Pro; pH 7.4, read-out: IC50 PL^Pro) was 260 ± 180 nM.

With “Zn-(N-hydroxyisoquinoline-1-thione) complex [1f]” the IC50 (cathepsin L; 50 mM acetate buffer pH 5.5, 2 µM Z-LR-AMC, 5 µM DTT, 25 °C, mean ± S.E.M. (N = 3), read-out: IC50 cathepsin L) was 140 ± 50 nM and the “extent of PL^Pro inhibition (in words)” value (SARS-CoV-2 PL^Pro) was “cannot fully inhibit the enzyme”.

For `On1c(=S)ccc2ccccc21` [g], the “vi/v0 at 100 µM, Cathepsin L (relative reaction rate)” value (cathepsin L; [5]) was 0.53 and the “vi/v0 at 100 µM, PLPro (relative reaction rate)” value (SARS-CoV-2 PL^Pro; [5]) was 0.28.

For Zn-(5Me-pth) complex [1d], the IC50 (cathepsin L; [4]) was 440 ± 120 nM and the IC50 (SARS-CoV-2 PL^Pro; pH 7.4, read-out: IC50 PL^Pro) was 220 ± 80 nM.
